The record followed here is patent US6403791B1, “Heterocyclic compounds and their therapeutic use” (Darwin Discovery, Ltd., priority 2000, dated 2002).

A short description of this data set: Oral pharmacokinetics (Cmax) in guinea pigs. Particulars: guinea pig, in vivo, dosed orally at 3 mg/kg to guinea pigs.

For `CCc1nc2c(OC(F)F)ccc(C(=O)Nc3c(C)noc3C)c2o1` [Example 1, 4-Difluoromethoxy-2-ethylbenzooxazole-7-carboxylic acid (3,5-dimethylisoxazole-4-yl)-amide], the Cmax (in general, the maximum level reached in the sampled fluid or tissue) was 4370 ng/mL.
